Among the data in patent publication US5696151A, “Compounds useful for the inhibition of the replication of HIV-1 and HIV-1 mutants” (priority 1995, dated 1997) are EC50 and CC50 values, retold here.

Molecules are shown by their SMILES. Values after ≈ are worked out from the molar mass of the structure shown. Where only a bound is given, the exact number is not on record here.

Common to all, as to assay type: cell-based
Data set [1] relates to HIV-1(IIIB). Description: Inhibition of HIV-1 induced syncytium formation in CEM cells, wild type. The note with it: Human immunodeficiency virus 1, IIIB, CCRF-CEM, 96 h, Table 2B, WT = HIV-1(IIIB), day 4, averages of 2 to 3 independent experiments, read-out: Antiviral Activity of Comparative Compounds EC50, WT. The essentials:
(§1)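 CEM cells (≈300,000/ml) infected with about 100 CCID50 of HIV-1(IIIB) or RT mutant strains, then added to 5-fold serial dilutions of test compounds. Inhibition of virus-induced syncytium formation scored microscopically on day 4 post infection.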

Data set [2] deals with HIV-1/100-Ile. Description: Inhibition of HIV-1 induced syncytium formation in CEM cells, RT mutant 100-Ile. The note with it: Human immunodeficiency virus 1, CCRF-CEM, 96 h, Table 2B, day 4, averages of 2 to 3 independent experiments, read-out: Antiviral Activity of Comparative Compounds EC50, 100-Ile. The essentials: as §1
Data set [3] deals with HIV-1/103-Asn. Description: Inhibition of HIV-1 induced syncytium formation in CEM cells, RT mutant 103-Asn. To be noted: Human immunodeficiency virus 1, CCRF-CEM, 96 h, Table 2B, day 4, averages of 2 to 3 independent experiments, read-out: Antiviral Activity of Comparative Compounds EC50, 103-Asn. The source says: (§2) CEM cells were obtained from the American Tissue Cell Culture Collection (Rockville, Md.). HIV-1(IIIB) was originally obtained from the culture supernatant of persistently HIV-1-infected H9 cells and was provided by R. C. Gallo and M. Popovic (National Cancer Institute, National Institutes of Health, Bethesda, Md.). […] 67: 5353-5359 (1993); HIV-1/Lys-138 ("Lys-138") was selected for resistance against TSAO-m^3T as described in Balzarini et al, Virology 192: 246-253 (1993) and Balzarini et al, Proc. Nat. Acad. Sci. USA 90: 6952-6956 (1993); HIV-1/181-Cys ("181-Cys") was selected for resistance against pyridinone L-697,661 as described in Balzarini et al, Virology 192: 246-253 (1993); and HIV-1/188-His ("188-His") was selected for resistance against HEPT as described in Balzarini et al, Mol. Pharmocol. 44: 694-701 (1993). 188-His was then further converted to HIV-1/188-Leu "188-Leu") upon further passage in cell culture in the absence of the HEPT.
(§3) CEM cells were suspended at ≈300,000 cells per ml of culture medium and infected with approximately 100 CCID50 (CCID50 being the 50% cell culture infective dose) of HIV-1(IIIB) or one of the HIV-1 RT mutant strains described above. Then 100 μl of the infected cell suspensions was added to 200 μl microtiter plate wells containing 100 μl of appropriate serial (5-fold) dilutions of the test compounds. The inhibitory effect of the test compounds on HIV-1 induced syncytium formation in CEM cells was examined microscopically on day 4 post infection.

Data set [4] deals with HIV-1/106-Ala. Description: Inhibition of HIV-1 induced syncytium formation in CEM cells, RT mutant 106-Ala. To be noted: Human immunodeficiency virus 1, CCRF-CEM, 96 h, Table 2B, day 4, averages of 2 to 3 independent experiments, read-out: Antiviral Activity of Comparative Compounds EC50, 106-Ala. The essentials: as §1
In data set [5] the test system is HIV-1/Lys-138. Description: Inhibition of HIV-1 induced syncytium formation in CEM cells, RT mutant 138-Lys. To be noted: Human immunodeficiency virus 1, CCRF-CEM, 96 h, Table 2B, day 4, averages of 2 to 3 independent experiments, read-out: Antiviral Activity of Comparative Compounds EC50, 138-Lys. The essentials: as §1
For data set [6], the system named is HIV-1/181-Cys. Description: Inhibition of HIV-1 induced syncytium formation in CEM cells, RT mutant 181-Cys. The note with it: Human immunodeficiency virus 1, CCRF-CEM, 96 h, Table 2B, day 4, averages of 2 to 3 independent experiments, read-out: Antiviral Activity of Comparative Compounds EC50, 181-Cys. The essentials: as §1
Data set [7] relates to HIV-1/188-Leu. Description: Inhibition of HIV-1 induced syncytium formation in CEM cells, RT mutant 188-Leu. To be noted: Human immunodeficiency virus 1, CCRF-CEM, 96 h, Table 2B, day 4, averages of 2 to 3 independent experiments, read-out: Antiviral Activity of Comparative Compounds EC50, 188-Leu.
Text: as §2, §3

A short description of data set [8]: in vitro. The note with it: human, cem cells, CC50 (50% cytostatic concentration), Table 2B; CEM cell proliferation; averages of 2 to 3 independent experiments. The essentials:
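In CEM cells, the cytostatic value is the compound concentration giving 50% inhibition of cell proliferation. Parallel work used HIV-1(IIIB) and culture-selected resistant strains Lys-138, 181-Cys, 188-His and 188-Leu.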

Broadly, the EC50 is the concentration at which the effect is half-maximal. The term CC50 denotes the concentration at which the toxic effect on the cells reaches its halfway point. As for `CC1=C(C(=O)Nc2ccc(Cl)c(C=NOC(C)(C)C)c2)SCCO1` [Compound 18], the EC50 was found to be 0.014 µg/mL (≈ 0.038 µM) in data set [1]; 0.33 µg/mL (≈ 0.895 µM) in data set [2]; 0.33 µg/mL (≈ 0.895 µM) in data set [3]; 0.15 µg/mL (≈ 0.407 µM) in data set [4]; 0.22 µg/mL (≈ 0.596 µM) in data set [5]; 0.13 µg/mL (≈ 0.352 µM) in data set [6]. In addition, in data set [7], the half-maximal effective concentration (EC50) is above 2 µg/mL. Besides, half-maximal cytotoxicity in data set [8] (CC50) was put at 8.5 µg/mL (≈ 23 µM).

Consider `Cc1sccc1C(=O)Nc1ccc(Cl)c(C(=O)OC(C)C)c1` [Compound 31], for which the EC50 in data set [1] is 0.09 µg/mL (≈ 0.266 µM); in data set [2] it was at least 2 µg/mL; in data set [3], at least 2 µg/mL; in data set [4], 0.6 µg/mL (≈ 1.78 µM); in data set [5] it was 0.93 µg/mL (≈ 2.75 µM); in data set [6], 0.73 µg/mL (≈ 2.16 µM). For the same molecule, the EC50 in data set [7] is above 2 µg/mL. In data set [8], this molecule registered a CC50 of 5.5 µg/mL (≈ 16.3 µM).

Take `CC1=C(C(=O)Nc2ccc(Cl)c(OCCC(C)C)c2)SCCO1` [Compound 41]: the EC50 in data set [1] is 0.28 µg/mL (≈ 0.787 µM); in data set [2], at least 2 µg/mL; in data set [3], at least 2 µg/mL; in data set [4], at least 2 µg/mL; in data set [5] it was at least 2 µg/mL; in data set [6], at least 2 µg/mL. Besides, the concentration giving a half-maximal response (EC50) in data set [7] was above 2 µg/mL. This molecule also gave a CC50 in data set [8] above 100 µg/mL.

Regarding `Cc1occc1C(=S)Nc1ccc(Cl)c(OCC(C)(C)C)c1` [Compound 39], the EC50 in data set [1] is 0.15 µg/mL (≈ 0.444 µM); in data set [2] it was 1.4 µg/mL (≈ 4.14 µM); in data set [3] it was 0.7 µg/mL (≈ 2.07 µM); in data set [4], above 2 µg/mL; in data set [5], 0.5 µg/mL (≈ 1.48 µM); in data set [6] it was at least 2 µg/mL. For the same molecule, the EC50 in data set [7] is above 2 µg/mL. Further, in data set [8], the midpoint of cytotoxicity, the CC50, lay at 4.1 µg/mL (≈ 12.1 µM).

In the case of `CC1=C(C(=S)Nc2ccc(Cl)c(C=NOC(C)(C)C)c2)CCO1` [Compound 7], the concentration for a half-maximal effect (EC50) stood at 0.0065 µg/mL (≈ 0.0184 µM) in data set [1]; 0.055 µg/mL (≈ 0.156 µM) in data set [2]; 0.058 µg/mL (≈ 0.164 µM) in data set [3]; 0.03 µg/mL (≈ 0.085 µM) in data set [4]; 0.04 µg/mL (≈ 0.113 µM) in data set [5]; 0.045 µg/mL (≈ 0.128 µM) in data set [6]. The 50% effective concentration (EC50) in data set [7] is 1.2 µg/mL (≈ 3.4 µM). In data set [8], this molecule registered a half-maximal cytotoxic concentration (CC50) of 11 µg/mL (≈ 31.2 µM).

Take `CC=CCOc1cc(NC(=O)C2=C(CC)OCCS2)ccc1Cl` [Compound 43]: the half-maximal effective concentration (EC50) in data set [1] was 0.65 µg/mL (≈ 1.84 µM); in data set [2], 1.2 µg/mL (≈ 3.39 µM); in data set [3], 1.3 µg/mL (≈ 3.67 µM); in data set [4], 4.5 µg/mL (≈ 12.7 µM); in data set [5], 1.3 µg/mL (≈ 3.67 µM); in data set [6], above 2 µg/mL. Further, in data set [7], the EC50 was above 2 µg/mL. This molecule also had a CC50 in data set [8] of 11 µg/mL (≈ 31.1 µM).

For `CC=CCOc1cc(NC(=O)c2ccoc2C)ccc1Cl` [Compound 40], the half-maximal effective concentration (EC50) in data set [1] was 0.24 µg/mL (≈ 0.785 µM); in data set [2], 1.4 µg/mL (≈ 4.58 µM); in data set [3], at least 2 µg/mL; in data set [4], above 2 µg/mL; in data set [5] it was 1.2 µg/mL (≈ 3.92 µM); in data set [6] it was above 2 µg/mL. In data set [7], the EC50 was above 2 µg/mL. Further, half-maximal cytotoxicity in data set [8] (CC50) was put at 5.8 µg/mL (≈ 19 µM).

Consider `CC=CCSc1cc(NC(=S)c2ccsc2C)ccc1Cl` [Compound 8], for which the half-maximal effective concentration (EC50) in data set [1] was 0.0055 µg/mL (≈ 0.0155 µM); in data set [2] it was 0.032 µg/mL (≈ 0.0904 µM); in data set [3], 0.023 µg/mL (≈ 0.065 µM); in data set [4], 0.023 µg/mL (≈ 0.065 µM); in data set [5] it was 0.025 µg/mL (≈ 0.0706 µM); in data set [6] it was 0.025 µg/mL (≈ 0.0706 µM). Also, the EC50 in data set [7] was above 2 µg/mL. This molecule also showed a 50% cytotoxic concentration (CC50) in data set [8] of 5.1 µg/mL (≈ 14.4 µM).

On to `Cc1sccc1C(=O)Nc1ccc(Cl)c(OCC2CCCC2)c1` [Compound 42], for which the concentration for a half-maximal effect (EC50) is 0.36 µg/mL (≈ 1.03 µM) in data set [1]; at least 2 µg/mL in data set [2]; at least 2 µg/mL in data set [3]; at least 2 µg/mL in data set [4]; at least 2 µg/mL in data set [5]; at least 2 µg/mL in data set [6]. In addition, in data set [7], the EC50 was above 2 µg/mL. This molecule also showed a CC50 in data set [8] of 5 µg/mL (≈ 14.3 µM).
